These are literature values, as cited in patent publication US10001483B2, “Methods for the treatment of Kaposi's sarcoma or KSHV-induced lymphoma using immunomodulatory compounds, and uses of biomarkers” (Celgene Corporation, priority 2015, dated 2018).

The conditions of the data set: patients, cited from earlier work.

Where two headings read alike, the source gives them in different places.

On to `O=C1CCC(N2C(=O)c3ccccc3C2=O)C(=O)N1` (stereo not shown) [thalidomide, 2-(2,6-dioxopiperidin-3-yl)-1H-isoindole-1,3(2H)-dione], for which, under “approved dose 200 mg”, the Cmax (in general, the maximum level reached in the sampled fluid or tissue) is 1760 ng/mL and the “Plasma Serum Concentration” value was 7 µM.

On to `Nc1cccc2c1CN(C1CCC(=O)NC1=O)C2=O` (stereo not shown) [lenalidomide, 3-(4-amino-1-oxo 1,3-dihydro-2H-isoindol-2-yl) piperidine-2,6-dione], for which, for the setting “approved dose 25 mg”, the Cmax is given as 451 ng/mL and the “Plasma Serum Concentration” value was 2 µM.
